# Measurements from PMC9481570, “A small molecule antagonist of SMN disrupts the interaction between SMN and RNAP II” (Nature Communications, 2022).
# System: GEMIN6
# Assay: AP-MS chemical proteomics, GEMIN6
# Format: binding, human
# Protocol: The samples for AP-MS were prepared following pulldown procedure as previously described with minor modifications. Briefly, U2OS cells were lysed in RIPA buffer and the cell lysate was equally divided into two groups: (1) DMSO group (control group): the cell lysate was incubated with 20 μM biotin-labeled compound 1; (2) Cpmd 1 group (sample group): the cell lysate was incubated with 20 μM biotin-labeled compound 1 and 200 μM free compound 1. Each group contains three biological replicates. They were incubated overnight at 4 °C, then 30 μL streptavidin beads (Thermo Fisher, 20353) was added and incubated at 4 °C for 1 h. The beads were then washed with RIPA buffer for 3 times, 10 min/time. […]
# Samples were analyzed by nanoLC-MS/MS (nanoRSLC, Thermo Fisher) using an Aurora series (Ion Opticks) reversed phase HPLC column (25 cm length × 75 µm inner diameter) and directly injected to an Orbitrap Eclipse (Thermo Fisher) using a 120 min gradient (mobile phase A = 0.1% formic acid, mobile phase B = 99.9% acetonitrile with 0.1% formic acid; hold 2% B for 5 min, 2–6% B in 0.1 min, 6–25% in 100 min, 25–50% in 15 min) at a flow rate of 350 nL/min. Eluted peptide ions were analyzed using a data-dependent acquisition (DDA) method with resolution settings of 120,000 and 15,000 (at m/z 200) for MS1 and MS2 scans, respectively. […]
smiles,measurement,setting,value
"Cn1c2c(c(=N)c3c1CCC3)CCC2 [Compound 1, 4-methyl-2,3,4,5,6,7-hexahydrodicyclopenta[b,e]pyridin-8(1H)-imine]",Difference,"GN=GEMIN6 (Q8WXD5), Cmpd minus DMSO, -LOG(P-value) 2.19893",-5.406
same,"log2 FC (Cmpd 1/DMSO), GEMIN6","biotin-Cmpd 1 pulldown, competition with 200 μM compound 1 relative to DMSO, U2OS lysate",−5.4
